One data set relates to P. aeruginosa ATCC10145. The data set can be described thus: Broth microdilution MIC / growth inhibition. The format is cell-based, Pseudomonas aeruginosa. The settings on record: 18 h at 37 °C, OD600nm; for MIC: P. aeruginosa ATCC10145, broth microdilution in MHB, at least three independent replicates, range 0.39–100 mg/L; for mean value of growth inhibition: P. aeruginosa. The method, then: (§1) The antibacterial activity of free CM4 and Synoeca was evaluated by determination of the minimum inhibitory concentration (MIC) against Gram-negative (E. coli HB101, P. aeruginosa ATCC10145, B. cenocepacia IST439, B. cenocepacia IST4113, and K. pneumoniae) and Gram-positive (S. aureus ATCC6538 and S. epidermidis) bacteria. The AMPs were incubated with bacterial suspensions and assessed for bacterial growth, with the MIC defined as the lowest concentration of AMPs that inhibited the visible growth of bacteria (Figure 5).
(§2) E. coli XL1-Blue and BL21(DE3) strains were used for the cloning and production steps, respectively. E. coli HB101, S. aureus ATCC6538, P. aeruginosa ATCC10145, B. cenocepacia IST439, B. cenocepacia IST4113, and clinical isolates of K. pneumoniae and S. epidermidis were used in the broth microdilution MIC assays. The clonal variants of B. cenocepacia were isolated, with a 3-year difference, from the same cystic fibrosis (CF) patient.
(§3) The antibacterial activity of the isolated AMPs was assessed via broth microdilution method to determine the MIC against clinically relevant Gram-negative and Gram-positive bacteria—E. coli HB101, P. aeruginosa ATCC10145, B. cenocepacia IST439, B. cenocepacia IST4113, K. pneumoniae isolate, S. aureus ATCC6538 and S. epidermidis isolate—following the European Committee on Antimicrobial Susceptibility Testing (EUCAST) and the Clinical Laboratory Standards Institute (CLSI) guidelines. A detailed description of the method is provided by Wiegand et al.. Briefly, stock solutions of 2 mg/mL of AMP in sterile mQ water were used for the preparation of two-fold serial dilutions in MHB, to obtain final testing concentrations within the range of 0.39–100 mg/L (200 mg/L for B. cenocepacia strains). For the MIC assays, 50 μL of protein solution and 50 μL of bacterial suspensions in MHB (1 × 10^6 CFUs/mL) were mixed in 96-well plates (Nunc™ Edge 2.0 96-well plates, Thermo Scientific™, Waltham, Massachusetts, EUA) and incubated for 18 h at 37 °C. Growth inhibition was assessed by measuring optical density at 600 nm (OD600nm). The MIC was determined as the lowest concentration of antimicrobial peptide that inhibited the visible growth of the testing bacteria. At least three independent replicates were performed for each peptide and bacterial strain. Data were analysed by GraphPad Prism 6 Software (GraphPad Software, Inc., La Jolla, CA, USA).
For orientation: In broth dilution the organism is exposed to a series of concentrations in liquid medium.

The next data set deals with B. cenocepacia IST439. The data set can be described thus: Broth microdilution MIC / growth inhibition. The data set is classed as cell-based, Burkholderia cenocepacia. The settings on record: 18 h at 37 °C, OD600nm; for MIC: broth microdilution in MHB, at least three independent replicates, range up to 200 mg/L. The method, then: as §1, §2, §3
For the next data set, the system named is B. cenocepacia IST4113. The data set is described as follows: Broth microdilution MIC / growth inhibition. The data set is classed as cell-based, Burkholderia cenocepacia. The settings on record: 18 h at 37 °C, OD600nm; for MIC: broth microdilution in MHB, at least three independent replicates, range up to 200 mg/L. On the procedure: as §1, §2, §3
A further data set concerns mammalian cells. The settings on record: cited from earlier work. From the text: In this work, we report the use of A200 as a thermoresponsive protein tag for the production and purification of the following two AMPs, using Escherichia coli as a cell factory: ABP-CM4 (CM4), a 35 amino acid antimicrobial peptide, isolated from the haemolymph of the silkworm Bombyx mori; and Synoeca-MP (Synoeca), a 14 amino acid antimicrobial peptide, isolated from the venom of the Synoeca surinama wasp. CM4 is a member of the cecropin family of peptides, with antibacterial, antifungal, and antitumor activities, while showing no toxicity towards mammalian cells [[26],[28],[29], ...

In a further data set the test system is S. epidermidis isolate. The data set is described as follows: Broth microdilution MIC / growth inhibition. The data set is classed as cell-based, Staphylococcus epidermidis. The settings on record: 18 h at 37 °C; for MIC: S. epidermidis clinical isolate, broth microdilution in MHB, OD600nm, at least three independent replicates, range 0.39–100 mg/L; for growth inhibition (complete inhibition): S. epidermidis, within tested range 0.39–100 mg/L. The method, then:
as §1, §2, §3

A further data set deals with E. coli HB101. The data set can be described thus: Broth microdilution MIC / growth inhibition. The format is cell-based, Escherichia coli. Conditions: 18 h at 37 °C; for MIC: E. coli HB101, broth microdilution in MHB, OD600nm, at least three independent replicates, range 0.39–100 mg/L; for growth inhibition (complete inhibition): E. coli, within tested range 0.39–100 mg/L. The method, then:
as §1, §2, §3

A further data set concerns S. aureus ATCC6538. The data set is described as follows: Broth microdilution MIC / growth inhibition. The data set is classed as cell-based, Staphylococcus aureus. The settings on record: 18 h at 37 °C; for MIC: S. aureus ATCC6538, broth microdilution in MHB, OD600nm, at least three independent replicates, range 0.39–100 mg/L; for growth inhibition (complete inhibition): S. aureus, within tested range 0.39–100 mg/L. The method, then: as §1, §2, §3

The test system of another data set is K. pneumoniae isolate. The data set is described as follows: Broth microdilution MIC / growth inhibition. The format is cell-based, Klebsiella pneumoniae. Conditions: 18 h at 37 °C, OD600nm; for MIC: K. pneumoniae clinical isolate, broth microdilution in MHB, at least three independent replicates, range 0.39–100 mg/L. On the procedure:
as §1, §2
as §3, with “For the MIC assays, 50 μL of protein solution and 50 μL of bacterial suspensions in MHB (1 × 10^6 CFUs/mL) were mixed in 96-well plates (Nunc™ Edge 2.0 96-well plates, Thermo Scientific™, Waltham, Massachusetts, EUA) and incubated for 18 h at 37 °C.” left out, “At least three independent replicates were performed for each peptide and bacterial strain.” left out

The text below walks through data of article PMC8541314, “Production and Purification of Two Bioactive Antimicrobial Peptides Using a Two-Step Approach Involving an Elastin-Like Fusion Tag” (Pharmaceuticals, 2021).

A word on the MIC: it is the lowest concentration that inhibits growth of the organism.

Consider ABP-CM4, for which the MIC against P. aeruginosa ATCC10145 is greater than 100.00 µg/mL; in the data set with B. cenocepacia IST439 it was roughly 200.00 µg/mL; in the data set with B. cenocepacia IST4113 it was 200.00 µg/mL; against S. epidermidis isolate, 12.50 µg/mL; with E. coli HB101, 50.00 µg/mL; against S. aureus ATCC6538 it was 3.13 µg/mL. In the data set with K. pneumoniae isolate, the MIC amounted to 50.00 µg/mL. For the same substance, the entries for the “mean value of growth inhibition” value in the data set with P. aeruginosa ATCC10145 (peptide 100.00 mg/L) and with B. cenocepacia IST4113 (peptide 200.00 mg/L) were 25% and 100%, respectively. In addition, the growth inhibition entry with B. cenocepacia IST439 (peptide 100.00 mg/L) and in the data set with B. cenocepacia IST4113 (peptide 100.00 mg/L) was “around 75%” throughout. Also, the “toxicity towards mammalian cells” value with mammalian cells (mammalian cells) is on record as “no toxicity”. Besides, the “growth inhibition (complete inhibition)” value in the data set on S. epidermidis isolate, in the data set on E. coli HB101 and in the data set with S. aureus ATCC6538 was 100% in each case.
On to Synoeca-MP, for which the MIC was greater than 100.00 µg/mL with P. aeruginosa ATCC10145; 12.50 µg/mL with B. cenocepacia IST439; 12.50 µg/mL in the data set with B. cenocepacia IST4113; 6.25 µg/mL against S. epidermidis isolate; 25.00 µg/mL against E. coli HB101; 1.56 µg/mL in the data set with S. aureus ATCC6538. Further, the MIC with K. pneumoniae isolate was greater than 100.00 µg/mL. Besides, the “mean value of growth inhibition” value with P. aeruginosa ATCC10145 (within tested range 0.39–100 mg/L) is “lower than 5%”; in the data set on K. pneumoniae isolate (K. pneumoniae, within tested range 0.39–100 mg/L) it was “lower than 5%”. In the data set on mammalian cells (mammalian cell lines), the “cytotoxicity against mammalian cell lines” value is recorded as “no significant cytotoxicity”. Moreover, the “growth inhibition (complete inhibition)” value in the data set on S. epidermidis isolate, with E. coli HB101 and in the data set on S. aureus ATCC6538 was 100% in each case.
